# Biological target: P. falciparum apicoplast DNA polymerase (Pf-apPOL) (Plasmodium falciparum, UniProt Q8ILY1)
# Assay: Fluorescence-based high-throughput DNA polymerase assay (molecular beacon), primary screen and dose-response
# Assay type: biochemical
# Details: for DNA Pol: 90 min, 10 µM; for IC50: supplemental file 2, sheet IC50 nontoxic compounds, Pf-apPOL
# Protocol: The HT assay employs a molecular beacon, a stem-loop DNA template with a Cy3 dye and the Black Hole Quencher on the 3′ and 5′ ends of the DNA, respectively. Pf-apPOL concentration is based on a calculated absorptivity of ε280 = 56750 M^−1 cm^−1. Reactions were carried out at 25 °C, using Corning 3575 […] (well-volume, 20 µL). Assays testing for compound inhibition composed of reaction buffer (pH 7.9 in 50 mM potassium acetate, 20 mM Tris-acetate and 10 mM magnesium acetate), Pf-apPOL (20 nM), DNA substrate (20 nM), dNTPs (6 µM), and compound (10 µM in DMSO). The DNA and nucleotide substrates (dNTPs) were at concentrations of 20 nM and 6 µM, respectively, in the assay. Pf-apPOL was incubated in the reaction buffer with dNTPs and the compound of interest (10 µM, in the assay) at 25 °C for 10 min. The DNA substrate was then added and the reaction was allowed to proceed for 90 min at 25 °C.
# Each assay plate contained 16 negative controls (no Pf-apPOL, DMSO present) and 16 positive controls (Pf-apPOL present, no DMSO). The fluorescence of each well was determined using a BioTek Synergy Neo fluorescence plate reader using excitation and emission wavelengths of 555 and 570 nm, respectively.
# In the above, Min is the average of fluorescence emission of the negative controls (substrate only), Max the average fluorescence emission from the positive controls (enzyme + substrate), and Test the emission from the assays in the presence of compounds (enzyme + compound + substrates). […] […] The IC50 of each compound was determined using Equation (2): (2) IC50= Vmax/(1+ (I/IC50)^n)
# In the above, n measures cooperativity, with n > 1 indicating synergistic binding of more than a single molecule of the compound.
# To identify apPOL inhibitors we utilised our previously developed high-throughput DNA polymerase assay. The HT assay is based on a molecular beacon DNA template that forms a stem-loop with a Cy3 dye and the Black Hole Quencher on the 3′ and 5′ ends of the DNA, respectively. DNA polymerase activity extends an annealed primer through the stem region, displacing the fluorophore from the quencher, thereby increasing its fluorescence (Figure 1(A)). The assay accurately recapitulates the kinetic behaviour of apPOL, as measured through more conventional low-throughput gel-based assays. The Z′ factor for the assay described here was 0.9 across all plates (data not shown).
# Figure 1. High-throughput screening. (A) The fluorescent-based DNA polymerase assay used to screen the compound libraries. The DNA template strand is a hairpin loop with a primer annealed to the loop. The 3’ end of the primer is 11 bases away from the 6 bp duplex. Strand displacement activity of the DNA polymerase separates the Cy3 dye from the Black hole quencher leading to an increase in fluorescent signal. (B) The high-throughput assay workflow. The DNA polymerase is incubated with […] compound for 10 min prior to addition of the hairpin substrate. The reaction is quenched at 3 different time points and the fluorescent signal is measured and % inhibition is determined using the provided equation.
# P. falciparum apicoplast DNA polymerase (Pf-apPOL), sequence (Q8ILY1 entry or part of it): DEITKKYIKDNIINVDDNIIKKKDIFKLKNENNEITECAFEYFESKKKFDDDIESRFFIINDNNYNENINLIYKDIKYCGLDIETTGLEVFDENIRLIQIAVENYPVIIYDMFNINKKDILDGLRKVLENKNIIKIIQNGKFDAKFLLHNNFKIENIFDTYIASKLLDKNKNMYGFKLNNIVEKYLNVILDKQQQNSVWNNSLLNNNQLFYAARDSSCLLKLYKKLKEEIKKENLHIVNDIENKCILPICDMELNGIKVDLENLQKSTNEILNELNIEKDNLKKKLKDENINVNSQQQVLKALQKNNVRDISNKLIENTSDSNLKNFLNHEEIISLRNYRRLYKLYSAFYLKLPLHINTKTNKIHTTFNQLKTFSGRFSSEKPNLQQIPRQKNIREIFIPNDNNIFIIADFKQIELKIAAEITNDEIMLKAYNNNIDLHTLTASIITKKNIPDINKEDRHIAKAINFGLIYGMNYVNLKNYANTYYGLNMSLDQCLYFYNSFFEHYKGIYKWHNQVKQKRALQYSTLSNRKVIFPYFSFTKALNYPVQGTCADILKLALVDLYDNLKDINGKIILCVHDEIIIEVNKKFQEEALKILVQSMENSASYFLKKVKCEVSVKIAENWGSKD
smiles,measurement,setting,value
Cc1ccc(N2NC(=O)/C(=C\c3ccc(O)c([N+](=O)[O-])c3)C2=O)cc1Cl [KU0058427],DNA Pol,'DNA Pol' of the 186 hits list (screen value),41
same,% inhibition Apo pol 10',"DRC-1, conc 2.5",22.1005%
same,% inhibition Apo pol 10',"DRC-1, conc 5",22.1201%
same,% inhibition Apo pol 10',"DRC-1, conc 10",57.6403%
same,% inhibition Apo pol 10',"DRC-1, conc 20",74.2262%
same,% inhibition Apo pol 10',"DRC-1, conc 40",90.9483%
same,% inhibition Apo pol 10',"DRC-1, conc 80",95.3494%
same,% inhibition Apol 90',"DRC-1, conc 2.5",11.8681%
same,% inhibition Apol 90',"DRC-1, conc 5",11.4719%
same,% inhibition Apol 90',"DRC-1, conc 10",38.0061%
same,% inhibition Apol 90',"DRC-1, conc 20",55.0808%
same,% inhibition Apol 90',"DRC-1, conc 40",83.5201%
same,% inhibition Apol 90',"DRC-1, conc 80",94.8173%
same,% inhibition apPOL 180',"DRC-1, conc 2.5",4.9901%
same,% inhibition apPOL 180',"DRC-1, conc 5",2.877%
same,% inhibition apPOL 180',"DRC-1, conc 10",25.4818%
same,% inhibition apPOL 180',"DRC-1, conc 20",38.9214%
same,% inhibition apPOL 180',"DRC-1, conc 40",73.2638%
same,% inhibition apPOL 180',"DRC-1, conc 80",93.9984%
same,% inhibition Apo pol 5',"DRC-2, conc 2.5",11%
same,% inhibition Apo pol 5',"DRC-2, conc 5",21%
same,% inhibition Apo pol 5',"DRC-2, conc 10",35%
same,% inhibition Apo pol 5',"DRC-2, conc 20",44%
same,% inhibition Apo pol 5',"DRC-2, conc 40",54%
same,% inhibition Apo pol 5',"DRC-2, conc 80",56%
same,% inhibition Apo pol 5',"DRC-2, concentration 2.5",11%
same,% inhibition Apo pol 5',"DRC-2, concentration 20",44%
same,% inhibition Apol 40',"DRC-2, conc 2.5",11%
same,% inhibition Apol 40',"DRC-2, conc 5",20%
same,% inhibition Apol 40',"DRC-2, conc 10",34%
same,% inhibition Apol 40',"DRC-2, conc 20",46%
same,% inhibition Apol 40',"DRC-2, conc 40",64%
same,% inhibition Apol 40',"DRC-2, conc 80",74%
same,% inhibition Apol 40',"DRC-2, concentration 2.5",11%
same,% inhibition Apol 40',"DRC-2, concentration 5",20%
same,% inhibition ApPOL 90',"DRC-2, conc 2.5",9%
same,% inhibition ApPOL 90',"DRC-2, conc 5",19%
same,% inhibition ApPOL 90',"DRC-2, conc 10",28%
same,% inhibition ApPOL 90',"DRC-2, conc 20",44%
same,% inhibition ApPOL 90',"DRC-2, conc 40",65%
same,% inhibition ApPOL 90',"DRC-2, conc 80",78%
same,% inhibition ApPOL 90',"DRC-2, concentration 2.5",9%
same,% inhibition ApPOL 90',"DRC-2, concentration 20",44%
same,% inhibition apPOL 180',"DRC-2, conc 2.5",2.37%
same,% inhibition apPOL 180',"DRC-2, conc 5",9%
same,% inhibition apPOL 180',"DRC-2, conc 10",20%
same,% inhibition apPOL 180',"DRC-2, conc 20",33%
same,% inhibition apPOL 180',"DRC-2, conc 40",57%
same,% inhibition apPOL 180',"DRC-2, conc 80",80%
same,% inhibition apPOL 180',"DRC-2, concentration 5",9%
same,% inhibition apPOL 180',"DRC-2, concentration 10",20%
same,DNA Pol,"primary screen value, ""DNA Pol""",41
O=C(O)c1nc(-c2ccccc2)nc2c1OCO2 [Molecule 45],IC50,,11.2 µM
"CSC1=C(C#N)C(=C(C#N)C#N)NC(c2ccccc2)=N1 [Molecule 2, CSc1nc([nH]c(=C(C#N)C#N)c1C#N)c1ccccc1]",DNA Pol,"'DNA Pol' of the 186 hits list (primary screen result), unit not given",97
same,% inhibition Apo pol 10',"DRC-1, concentration 2.5",13.8022%
same,% inhibition Apo pol 10',"DRC-1, concentration 5",41.8918%
same,% inhibition Apo pol 10',"DRC-1, concentration 10",81.1404%
same,% inhibition Apo pol 10',"DRC-1, concentration 20",90.9481%
same,% inhibition Apo pol 10',"DRC-1, concentration 40",95.8628%
same,% inhibition Apo pol 10',"DRC-1, concentration 80",96.566%
same,% inhibition Apol 90',"DRC-1, concentration 2.5",8.793%
same,% inhibition Apol 90',"DRC-1, concentration 5",34.1727%
same,% inhibition Apol 90',"DRC-1, concentration 10",79.1809%
same,% inhibition Apol 90',"DRC-1, concentration 20",88.8682%
same,% inhibition Apol 90',"DRC-1, concentration 40",93.6444%
same,% inhibition Apol 90',"DRC-1, concentration 80",97.3798%
same,% inhibition apPOL 180',"DRC-1, concentration 2.5",3.214%
same,% inhibition apPOL 180',"DRC-1, concentration 5",23.1824%
same,% inhibition apPOL 180',"DRC-1, concentration 10",72.8695%
same,% inhibition apPOL 180',"DRC-1, concentration 20",86.4873%
same,% inhibition apPOL 180',"DRC-1, concentration 40",92.4303%
same,% inhibition apPOL 180',"DRC-1, concentration 80",97.316%
same,% inhibition Apo pol 5',"DRC-2, concentration 2.5",8%
same,% inhibition Apo pol 5',"DRC-2, concentration 5",21%
same,% inhibition Apo pol 5',"DRC-2, concentration 10",38%
same,% inhibition Apo pol 5',"DRC-2, concentration 20",53%
same,% inhibition Apo pol 5',"DRC-2, concentration 40",57%
same,% inhibition Apo pol 5',"DRC-2, concentration 80",60%
same,% inhibition Apol 40',"DRC-2, concentration 5",25%
same,% inhibition Apol 40',"DRC-2, concentration 10",47%
same,% inhibition Apol 40',"DRC-2, concentration 20",65%
same,% inhibition Apol 40',"DRC-2, concentration 40",69%
same,% inhibition Apol 40',"DRC-2, concentration 80",76%
same,% inhibition ApPOL 90',"DRC-2, concentration 2.5",9%
same,% inhibition ApPOL 90',"DRC-2, concentration 5",22%
same,% inhibition ApPOL 90',"DRC-2, concentration 10",46%
same,% inhibition ApPOL 90',"DRC-2, concentration 20",66%
same,% inhibition ApPOL 90',"DRC-2, concentration 40",70%
same,% inhibition ApPOL 90',"DRC-2, concentration 80",79%
same,% inhibition apPOL 180',"DRC-2, concentration 2.5",2.48%
same,% inhibition apPOL 180',"DRC-2, concentration 5",13%
same,% inhibition apPOL 180',"DRC-2, concentration 10",36%
same,% inhibition apPOL 180',"DRC-2, concentration 20",61%
same,% inhibition apPOL 180',"DRC-2, concentration 40",67%
same,% inhibition apPOL 180',"DRC-2, concentration 80",80%
same,DNA Pol,"primary screen value of the library well, unit not given",97
O=C(Cc1cc(=O)[nH]c(SCc2ccccc2)n1)Nc1ccc2c(c1)OCO2 [Molecule 46],IC50,,15.5 µM

# — PMC9090415, “Discovery of small molecule inhibitors of Plasmodium falciparum apicoplast DNA polymerase” (Journal of Enzyme Inhibition and Medicinal Chemistry, 2022)
